According to patent US11279744B2, “Neuropeptide Y fragment capable of releasing hematopoietic stem cells into blood and treating osteoporosis” (Kyungpook National University Industry-Academic Cooperation …, priority 2017, dated 2022):
Entries after “also recorded” stand apart in the source; their conditions may differ. Non-standard residues stand in square brackets, D forms with d. No end group written: not given here.

test system: not listed separately; experiment: weight change in animal models of osteoporosis (OVX); type: in vivo, mouse; details: OVX mice, 50 μg/kg intraperitoneally twice a day for 4 weeks; weighed weekly; vs PBS group that gained weight
Procedure: (§1) To make an osteoporosis model, 10-18 12 weeks old female mice per group underwent ovarian ablation. A week later, 50 μg/kg of NPY(21-28), NPY D^25(21-28), NPY D^26(21-28), NPY D^25,26(21-28), Osteopep2, NPY and 100 μl of PBS(Gibco) were intraperitoneally administered twice a day for 4 weeks at 12 hour intervals. Alendronate (Sigma), used as a competitive drug, was intraperitoneally administered once a week for 4 weeks at a dose of 50 μg/kg. As a control group, only Sham model of osteoporosis was performed by subcutaneous dissection of female mouse. Mice were placed in experimental groups using the Block randomization method, and all mouse experiments were approved through the Kyungpook National University Institutional Animal Care and Use Committee.
(§2) In order to investigate whether the NPY (21-28) of the present invention affects the blood release of myelopoiesis stem cells in the animal models of osteoporosis, the following experiments were carried out according to the methods of Examples 1-1, 1-3, 1-4, and 1-5. In order to make animal models of osteoporosis, 12 weeks old C57BL/6 female mice were subjected to ovarian ablation for 10 to 18 animals in each group. One week later, 50 μg/kg of NPY (21-28) and 100 μl of PBS (Gibco) were intraperitoneally administered twice a day for 4 weeks at 12 hour intervals. As a control group, mice that underwent only subcutaneous incisions in normal mice were used. Weight change was measured weekly, and bone marrow and blood were collected one hour after the last dose at 4 weeks, and the release of myelopoiesis progenitor and stem cells into blood was analyzed. […]
In order to investigate the effect of NPY (21-28) of the present invention on weight gain induced by osteoporosis, body weight was measured once a week for a total of 4 weeks of NPY (21-28) injection. […]
In order to investigate the effects of NPY D^25(21-28), NPY D^26(21-28), and NPY D^25,26(21-28) of the present invention on weight gain induced by osteoporosis, body weight was measured once a week for a total of 4 weeks in which each peptide was injected.

| Substance | weight change |
| --- | --- |
| YSALRHYI [NPY (21-28)] | did not change in weight |
| NPY D^25,26(21-28): peptide in which both the fifth and sixth amino acids of NPY (21-28) are modified to D-form (YSAL[dR][dH]YI) | did not change in weight |
| NPY D^25(21-28): peptide in which arginine, the fifth amino acid of the amino acid sequence of NPY (21-28), is modified to D-type (YSAL[dR]HYI) | did not change in weight |

test system: adhesion factors of hematopoietic stem cell in bone marrow (Sdf-1a, KitI, Angpt1); experiment: expression of adhesion factors in bone marrow of osteoporosis animal models, real-time quantitative PCR; type: in vivo, mouse; details: OVX mice, 50 μg/kg i.p. twice a day for 4 weeks; bone marrow 1 hour after last administration
Procedure: as §1
Real-time quantitative PCR was used to measure expression levels of hematopoietic stem cell adhesion factors (Sdf-1a, KitI, Angpt1) present in osteoblasts. Total RNA was extracted from cell eluate and bone marrow cells using the RNeasy Plus mini kit (Qiagen, Korea, Ltd), and cDNAs were synthesized from 5 μg total RNA using a kit in Clontech (Mountain View, Calif.). In addition, using a Corbett research RG-6000 real-time PCR instrument, Real-time quantitative PCR was performed at 95° C. for 10 minutes; at 95° C., for 10 seconds; at 58° C., for 15 seconds; at 72° C. for 20 seconds as one cycle, and 40 cycles were repeated.
as §2, with “One week later, 50 μg/kg of NPY (21-28) and 100 μl of PBS (Gibco) were intraperitoneally administered twice a day for 4 weeks at 12 hour intervals. As a control group, mice that underwent only subcutaneous incisions in normal mice were used.” left out

| Substance | expression levels of major adhesion factors Sdf-1a, KitI, and Angpt1 in bone marrow |
| --- | --- |
| YSALRHYI [NPY (21-28)] | decreased |
| NPY D^25,26(21-28): peptide in which both the fifth and sixth amino acids of NPY (21-28) are modified to D-form (YSAL[dR][dH]YI) | decreased; also recorded: generally superior to those of NPY |
| NPY D^25(21-28): peptide in which arginine, the fifth amino acid of the amino acid sequence of NPY (21-28), is modified to D-type (YSAL[dR]HYI) | decreased; also recorded: generally superior to those of NPY |
